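Values below derive from 48-hour exposures of cells grown in 96-well plates, with endpoints linearly interpolated between the two concentrations bracketing the appropriate inhibition level. The concentration for full growth arrest is given as TGI.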
Experiments:
Assay in all cases: NCI tumour cell line growth inhibition, 48 h
OVCAR-4 ovarian = tested on: OVCAR-4 ovarian
HCT-15 colon = tested on: HCT-15 colon
MALME-3M melanoma = tested on: MALME-3M melanoma
KM12 colon = tested on: KM12 colon
NCI-H460 lung = tested on: NCI-H460 lung
A498 renal = tested on: A498 renal
UACC-257 melanoma = tested on: UACC-257 melanoma
SF-295 CNS = tested on: SF-295 CNS
SK-MEL-28 melanoma = tested on: SK-MEL-28 melanoma
T-47D breast = tested on: T-47D breast
EKVX NSCLC = tested on: EKVX NSCLC
ACHN renal = tested on: ACHN renal
786-0 renal = tested on: 786-0 renal
NCI/ADR-RES ovarian = tested on: NCI/ADR-RES ovarian
SNB-19 CNS = tested on: SNB-19 CNS
NCI-H23 lung = tested on: NCI-H23 lung
SF-539 CNS = tested on: SF-539 CNS
HOP-92 NSCLC = tested on: HOP-92 NSCLC
MDA-MB-435 = tested on: MDA-MB-435
SK-OV-3 ovarian = tested on: SK-OV-3 ovarian
M14 melanoma = tested on: M14 melanoma
TK-10 renal = tested on: TK-10 renal
PC-3 prostate = tested on: PC-3 prostate
K-562 leukemia = tested on: K-562 leukemia
SR leukemia = tested on: SR leukemia
CCRF-CEM leukemia = tested on: CCRF-CEM leukemia
MOLT-4 leukemia = tested on: MOLT-4 leukemia
OVCAR-8 ovarian = tested on: OVCAR-8 ovarian
U251 CNS = tested on: U251 CNS
HL-60(TB) leukemia = tested on: HL-60(TB) leukemia
HT29 colon = tested on: HT29 colon
NCI-H226 lung = tested on: NCI-H226 lung
RPMI-8226 leukemia = tested on: RPMI-8226 leukemia
COLO 205 colon = tested on: COLO 205 colon
A549 NSCLC = tested on: A549 NSCLC
HCC-2998 colon = tested on: HCC-2998 colon
MCF7 breast = tested on: MCF7 breast
UACC-62 melanoma = tested on: UACC-62 melanoma
RXF 393 renal = tested on: RXF 393 renal
OVCAR-3 ovarian = tested on: OVCAR-3 ovarian
BT-549 breast = tested on: BT-549 breast
IGROV1 ovarian = tested on: IGROV1 ovarian
HOP-62 NSCLC = tested on: HOP-62 NSCLC
UO-31 renal = tested on: UO-31 renal
MDA-N = tested on: MDA-N
CAKI-1 renal = tested on: CAKI-1 renal
MDA-MB-231 breast = tested on: MDA-MB-231 breast
SK-MEL-2 melanoma = tested on: SK-MEL-2 melanoma
SNB-75 CNS = tested on: SNB-75 CNS
DU-145 prostate = tested on: DU-145 prostate
OVCAR-5 ovarian = tested on: OVCAR-5 ovarian
SN12C renal = tested on: SN12C renal
SF-268 CNS = tested on: SF-268 CNS
SK-MEL-5 melanoma = tested on: SK-MEL-5 melanoma
HCT-116 colon = tested on: HCT-116 colon
SW-620 colon = tested on: SW-620 colon
NCI-H522 lung = tested on: NCI-H522 lung
LOX IMVI melanoma = tested on: LOX IMVI melanoma
HS 578T breast = tested on: HS 578T breast

SMILES: Cc1cccc2c(N)c3cccc(C(=O)NCC[N+]4(Cc5ccc([N+](=O)[O-])cc5)CCOCC4)c3nc12
- TGI (OVCAR-4 ovarian): > 100 µM
- TGI (HCT-15 colon): > 100 µM
- TGI (MALME-3M melanoma): > 100 µM
- TGI (KM12 colon): > 100 µM
- TGI (NCI-H460 lung): > 62.5 µM
- TGI (A498 renal): > 100 µM
- TGI (UACC-257 melanoma): > 100 µM
- TGI (SF-295 CNS): > 100 µM
- TGI (SK-MEL-28 melanoma): > 100 µM
- TGI (T-47D breast): 98.3 µM
- TGI (EKVX NSCLC): > 100 µM
- TGI (ACHN renal): > 100 µM
- TGI (786-0 renal): > 100 µM
- TGI (NCI/ADR-RES ovarian): > 100 µM
- TGI (SNB-19 CNS): > 100 µM
- TGI (NCI-H23 lung): > 100 µM
- TGI (SF-539 CNS): > 100 µM
- TGI (HOP-92 NSCLC): 71.8 µM
- TGI (MDA-MB-435): > 100 µM
- TGI (SK-OV-3 ovarian): > 100 µM
- TGI (M14 melanoma): > 100 µM
- TGI (TK-10 renal): > 100 µM
- TGI (PC-3 prostate): > 100 µM
- TGI (K-562 leukemia): > 100 µM
- TGI (SR leukemia): 64.2 µM
- TGI (CCRF-CEM leukemia): > 100 µM
- TGI (MOLT-4 leukemia): > 69.2 µM
- TGI (OVCAR-8 ovarian): > 100 µM
- TGI (U251 CNS): > 100 µM
- TGI (HL-60(TB) leukemia): 58.1 µM
- TGI (HT29 colon): > 100 µM
- TGI (NCI-H226 lung): > 100 µM
- TGI (RPMI-8226 leukemia): > 100 µM
- TGI (COLO 205 colon): > 100 µM
- TGI (A549 NSCLC): > 100 µM
- TGI (HCC-2998 colon): 60.5 µM
- TGI (MCF7 breast): > 100 µM
- TGI (UACC-62 melanoma): > 100 µM
- TGI (RXF 393 renal): > 100 µM
- TGI (OVCAR-3 ovarian): > 100 µM
- TGI (BT-549 breast): > 100 µM
- TGI (IGROV1 ovarian): > 100 µM
- TGI (HOP-62 NSCLC): > 100 µM
- TGI (UO-31 renal): > 100 µM
- TGI (MDA-N): > 100 µM
- TGI (CAKI-1 renal): > 100 µM
- TGI (MDA-MB-231 breast): > 86.2 µM
- TGI (SK-MEL-2 melanoma): > 100 µM
- TGI (SNB-75 CNS): 63 µM
- TGI (DU-145 prostate): > 100 µM
- TGI (OVCAR-5 ovarian): > 100 µM
- TGI (SN12C renal): > 100 µM
- TGI (SF-268 CNS): > 100 µM
- TGI (SK-MEL-5 melanoma): > 100 µM
- TGI (HCT-116 colon): 58.5 µM
- TGI (SW-620 colon): > 100 µM
- TGI (NCI-H522 lung): > 84.9 µM
- TGI (LOX IMVI melanoma): > 100 µM
- TGI (HS 578T breast): > 77 µM

SMILES: COP(=O)(OC)/C(=C/c1cn(C(c2ccccc2)(c2ccccc2)c2ccccc2)cn1)NC=O
- TGI (OVCAR-4 ovarian): 51.9 µM
- TGI (HCT-15 colon): 99.4 µM
- TGI (MALME-3M melanoma): 38.5 µM
- TGI (KM12 colon): > 100 µM
- TGI (NCI-H460 lung): 34.9 µM
- TGI (A498 renal): 32 µM
- TGI (SF-295 CNS): 30.5 µM
- TGI (SK-MEL-28 melanoma): 93.6 µM
- TGI (T-47D breast): > 100 µM
- TGI (EKVX NSCLC): 56.9 µM
- TGI (ACHN renal): 24.6 µM
- TGI (786-0 renal): > 100 µM
- TGI (NCI/ADR-RES ovarian): > 100 µM
- TGI (SNB-19 CNS): > 100 µM
- TGI (NCI-H23 lung): 41.2 µM
- TGI (SF-539 CNS): 28.3 µM
- TGI (HOP-92 NSCLC): 68 µM
- TGI (MDA-MB-435): 40.1 µM
- TGI (SK-OV-3 ovarian): 90.8 µM
- TGI (M14 melanoma): 34.4 µM
- TGI (TK-10 renal): 46.3 µM
- TGI (PC-3 prostate): > 100 µM
- TGI (K-562 leukemia): > 100 µM
- TGI (SR leukemia): > 100 µM
- TGI (CCRF-CEM leukemia): > 100 µM
- TGI (MOLT-4 leukemia): > 100 µM
- TGI (OVCAR-8 ovarian): 60.4 µM
- TGI (U251 CNS): 35.4 µM
- TGI (HL-60(TB) leukemia): > 100 µM
- TGI (HT29 colon): 33.8 µM
- TGI (NCI-H226 lung): 98.9 µM
- TGI (RPMI-8226 leukemia): > 100 µM
- TGI (COLO 205 colon): 32.9 µM
- TGI (A549 NSCLC): > 100 µM
- TGI (HCC-2998 colon): 33.3 µM
- TGI (MCF7 breast): 33.7 µM
- TGI (UACC-62 melanoma): 41.3 µM
- TGI (RXF 393 renal): 35.1 µM
- TGI (OVCAR-3 ovarian): 30.2 µM
- TGI (BT-549 breast): 30.6 µM
- TGI (IGROV1 ovarian): 44.1 µM
- TGI (HOP-62 NSCLC): 35.9 µM
- TGI (UO-31 renal): > 100 µM
- TGI (MDA-N): 51.4 µM
- TGI (CAKI-1 renal): 62.3 µM
- TGI (MDA-MB-231 breast): 33.5 µM
- TGI (SK-MEL-2 melanoma): 34.4 µM
- TGI (SNB-75 CNS): 23.3 µM
- TGI (DU-145 prostate): > 100 µM
- TGI (OVCAR-5 ovarian): 38.2 µM
- TGI (SN12C renal): 46.4 µM
- TGI (SF-268 CNS): 33.1 µM
- TGI (SK-MEL-5 melanoma): 27.5 µM
- TGI (HCT-116 colon): 32.8 µM
- TGI (SW-620 colon): 78.1 µM
- TGI (NCI-H522 lung): 41.2 µM
- TGI (LOX IMVI melanoma): 32.5 µM
- TGI (HS 578T breast): 43.2 µM

SMILES: CN(C)c1ccc(C(c2ccc(Cl)cc2)c2ccc(N(C)C)cc2)cc1
- TGI (HCT-15 colon): > 100 µM
- TGI (MALME-3M melanoma): > 100 µM
- TGI (KM12 colon): > 100 µM
- TGI (NCI-H460 lung): > 100 µM
- TGI (A498 renal): > 100 µM
- TGI (UACC-257 melanoma): > 100 µM
- TGI (SF-295 CNS): > 100 µM
- TGI (SK-MEL-28 melanoma): > 100 µM
- TGI (T-47D breast): > 100 µM
- TGI (EKVX NSCLC): > 100 µM
- TGI (ACHN renal): > 100 µM
- TGI (786-0 renal): > 100 µM
- TGI (NCI/ADR-RES ovarian): > 100 µM
- TGI (SNB-19 CNS): > 100 µM
- TGI (NCI-H23 lung): > 100 µM
- TGI (SF-539 CNS): > 100 µM
- TGI (HOP-92 NSCLC): > 100 µM
- TGI (MDA-MB-435): > 100 µM
- TGI (SK-OV-3 ovarian): > 100 µM
- TGI (M14 melanoma): > 100 µM
- TGI (TK-10 renal): > 100 µM
- TGI (PC-3 prostate): > 100 µM
- TGI (K-562 leukemia): > 100 µM
- TGI (SR leukemia): > 100 µM
- TGI (CCRF-CEM leukemia): > 100 µM
- TGI (MOLT-4 leukemia): > 100 µM
- TGI (OVCAR-8 ovarian): > 100 µM
- TGI (U251 CNS): > 100 µM
- TGI (HL-60(TB) leukemia): > 100 µM
- TGI (HT29 colon): > 100 µM
- TGI (RPMI-8226 leukemia): > 100 µM
- TGI (COLO 205 colon): > 100 µM
- TGI (A549 NSCLC): > 100 µM
- TGI (HCC-2998 colon): > 100 µM
- TGI (MCF7 breast): > 100 µM
- TGI (UACC-62 melanoma): > 100 µM
- TGI (RXF 393 renal): > 100 µM
- TGI (OVCAR-3 ovarian): > 100 µM
- TGI (BT-549 breast): > 100 µM
- TGI (IGROV1 ovarian): > 100 µM
- TGI (HOP-62 NSCLC): > 100 µM
- TGI (UO-31 renal): > 100 µM
- TGI (MDA-N): > 100 µM
- TGI (CAKI-1 renal): > 100 µM
- TGI (MDA-MB-231 breast): > 100 µM
- TGI (SK-MEL-2 melanoma): > 100 µM
- TGI (SNB-75 CNS): > 100 µM
- TGI (DU-145 prostate): > 100 µM
- TGI (OVCAR-5 ovarian): > 100 µM
- TGI (SN12C renal): > 100 µM
- TGI (SF-268 CNS): > 100 µM
- TGI (SK-MEL-5 melanoma): > 100 µM
- TGI (HCT-116 colon): > 100 µM
- TGI (SW-620 colon): > 100 µM
- TGI (NCI-H522 lung): > 100 µM
- TGI (LOX IMVI melanoma): > 100 µM
- TGI (HS 578T breast): > 100 µM
